Assay: Stability of oligonucleotides in anhydrous TFA simulating Edman peptide cleavage conditions (HPLC)
Format: physicochemical
Conditions: 1 hr in anhydrous TFA (DMSO/TFA, 45 deg C), FIG. 40
Procedure: A deprotected 15mer DNA oligonucleotide (CCTGTTGTCAATGAG, Sys #003, LO1) (SEQ ID NO: 126) was obtained from Integrated DNA Technologies. Cleavage, deprotection, and desalting were performed by IDT using their standard process. It was resuspended in Mol Bio grade H2O at 160 μM and a 40 μL aliquot was dried (Eppindorf, Vacufuge+, 45° C. for ˜2 hrs) prior to subjecting to Edman cleavage chemistry. The deprotected oligonucleotide material used for the baseline measurement was resuspended as above, but not dried.
A protected DNA oligonucleotide (5Phos/ATGAGTG/iFormInd/AGGGAAATAGCTTCTGGT CGAACTAGTTGTTCGTCAA/idSp/TTTCTTT, Sys #001, SOCAB) (SEQ ID NO: 125) was liberated from CPG support using EndoIV (NEB, M0304) and desalted (Zymo) to provide five 60 μL aliquots at 70 μM of/5Phos/ATGAGTG/iFormInd/[…] (SEQ ID NO: 75), which were dried as described above. The protected oligonucleotide material used for the baseline measurement was desalted as above, but not dried.
In anhydrous environment 40 μL of DMSO was added to each dried aliquot. Following disolution 40 μL TFA was added to each. Solutions were incubated at 45 deg C. for 0 mins, 30 mins, 60 mins, 4 hrs, and overnight. Samples were neutralized by addition of 228 μL of 4.1M imidazole solution at the conclusion of their incubation period. HPLC chromatograms were collected for each sample.

Substance: protected oligos: protected DNA oligonucleotide liberated from CPG support, /5Phos/ATGAGTG/iFormInd/AGGGAAATAGCTTCTGGTCGAACTAGTTGTTCGTCAA (SEQ ID NO: 75) (DNA ATGAGTGNAGGGAAATAGCTTCTGGTCGAACTAGTTGTTCGTCAA; 5' phosphate, internal formylindole, protecting groups; modified_base 1 OTHER; 5' phosphorylated nucleotide; modified_base 8 OTHER; Formylindole modified nucleotide)
- HPLC peak after exposure to anhydrous TFA: largely unchanged

— patent US12474347B2, “Determination of protein information by recoding amino acid polymers into DNA polymers” (ABRUS BIO, INC., priority 2022, dated 2025)
